Among the data in patent publication US11980669B2, “Capped and uncapped antibody cysteines, and their use in antibody-drug conjugation” (PFIZER INC., priority 2015, dated 2024) are Cell viability values, retold here.

The data set deals with stable CHO cells. Description: Cell viability and cell counts of stable CHO cells cultured with capping reagent in the medium. To be noted: 0.5 mM DTNB in CD-CHO medium, 72 hrs. It counts as cell-based. The method, then:
Ellman's reagent, 5,5′-dithiobis-(2-nitrobeoic acid) (DTNB) was examined as a capping agent to add thionitrobenzoate (TNB). (DTNB is commonly used for assaying free thiol content in proteins. This reagent cannot disrupt disulfide bond but can react with free Cys. It has been used to treat partially-reduced antibody materials to generate four free Cys for drug conjugation.) A CHO cell line stably expressing the cysteine mutant antibody was grown to 4×10e6/ml in CD-CHO medium, then switched to fresh CD-CHO medium, fresh CD-CHO medium with 0.5 mM DTNB, or the triple-low medium as a control. Cells were cultured in these conditions for 72 hrs, cell viability was measured and conditioned medium was harvested. […] Protein expression in the DTNB-containing medium was also 5-fold lower than those in CD-CHO. Antibody purification from ProA column and protein migration in SDS-PAGE from all three culture conditions materials were nearly identical, as shown in FIG. 5A. All three samples in SEC analysis show monomer species, with very little aggregation.
19.8 mM MTFB, dissolved in DMSO, was added to 50 ml cell culture at a final concentration of 0.25 mM for 24 hr. Cell viability was measured and conditioned medium was harvested. […] Antibody HAB08L443C at such condition was subsequently purified by a 1 ml-ProA column (FIG. 12B). […]

Molecule `O=C(O)c1cc(SSc2ccc([N+](=O)[O-])c(C(=O)O)c2)ccc1[N+](=O)[O-]` [DTNB, 5,5′-dithiobis-(2-nitrobeoic acid)] returned a Cell viability of 40%.
